The target of series [1] is T1, Non-receptor tyrosine-protein kinase TYK2 (Homo sapiens, UniProt P29597). Type of series: cell-based, Sf9.
Series [2] concerns the target T2, Tyrosine-protein kinase JAK3 (Homo sapiens, UniProt P52333).
T2 sequence (P52333 whole entry): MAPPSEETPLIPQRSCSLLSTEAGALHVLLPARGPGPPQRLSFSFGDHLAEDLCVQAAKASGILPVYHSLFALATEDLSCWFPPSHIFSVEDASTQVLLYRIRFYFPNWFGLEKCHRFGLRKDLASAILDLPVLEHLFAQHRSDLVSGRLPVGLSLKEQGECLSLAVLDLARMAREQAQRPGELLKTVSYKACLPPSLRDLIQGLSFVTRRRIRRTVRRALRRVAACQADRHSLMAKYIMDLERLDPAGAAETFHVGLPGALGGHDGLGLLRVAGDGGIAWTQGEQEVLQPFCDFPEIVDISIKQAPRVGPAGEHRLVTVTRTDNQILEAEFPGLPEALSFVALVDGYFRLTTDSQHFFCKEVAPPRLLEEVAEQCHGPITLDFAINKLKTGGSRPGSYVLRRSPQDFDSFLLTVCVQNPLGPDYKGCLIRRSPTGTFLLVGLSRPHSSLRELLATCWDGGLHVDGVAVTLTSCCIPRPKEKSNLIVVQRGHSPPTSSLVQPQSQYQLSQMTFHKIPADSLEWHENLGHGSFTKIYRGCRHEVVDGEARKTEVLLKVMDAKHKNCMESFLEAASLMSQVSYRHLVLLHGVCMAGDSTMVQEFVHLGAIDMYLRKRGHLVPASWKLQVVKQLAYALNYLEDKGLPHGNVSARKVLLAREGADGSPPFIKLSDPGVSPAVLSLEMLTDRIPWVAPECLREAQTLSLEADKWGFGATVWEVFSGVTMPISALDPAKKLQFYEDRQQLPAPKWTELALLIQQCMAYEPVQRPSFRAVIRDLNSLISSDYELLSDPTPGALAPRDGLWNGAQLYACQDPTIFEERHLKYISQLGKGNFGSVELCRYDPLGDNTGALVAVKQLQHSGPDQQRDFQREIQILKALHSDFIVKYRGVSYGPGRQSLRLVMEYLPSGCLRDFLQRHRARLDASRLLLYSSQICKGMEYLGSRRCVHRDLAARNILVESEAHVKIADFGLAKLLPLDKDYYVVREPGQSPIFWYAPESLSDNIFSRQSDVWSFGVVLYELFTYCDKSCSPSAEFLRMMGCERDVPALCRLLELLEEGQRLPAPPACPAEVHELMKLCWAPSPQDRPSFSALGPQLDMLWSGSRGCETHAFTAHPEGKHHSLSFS
Format: cell-based, Sf9.

The target of series [3] is T3, Tyrosine-protein kinase JAK1 (Homo sapiens, UniProt P23458). Type of series: cell-based, Sf9.
Series [4] addresses T2, Tyrosine-protein kinase JAK3. Format: cell-based, BaF3.
Series [5] addresses T1, Non-receptor tyrosine-protein kinase TYK2. Format: cell-based, BaF3.
Series [6] has as its target T4, JAK3/JAK1 (Homo sapiens, UniProt P23458+P52333). Format: cell-based.
The target of series [7] is T4, JAK3/JAK1. Format: cell-based, Blood.
Series [8] can be described thus: in vitro. As to conditions: human, plasma.
Description: Fraction unbound in human plasma by equilibrium dialysis
In series [9] the target is T3, Tyrosine-protein kinase JAK1. Type of series: cell-based, BaF3.

T4 sequence (P23458 whole entry, one chain of several): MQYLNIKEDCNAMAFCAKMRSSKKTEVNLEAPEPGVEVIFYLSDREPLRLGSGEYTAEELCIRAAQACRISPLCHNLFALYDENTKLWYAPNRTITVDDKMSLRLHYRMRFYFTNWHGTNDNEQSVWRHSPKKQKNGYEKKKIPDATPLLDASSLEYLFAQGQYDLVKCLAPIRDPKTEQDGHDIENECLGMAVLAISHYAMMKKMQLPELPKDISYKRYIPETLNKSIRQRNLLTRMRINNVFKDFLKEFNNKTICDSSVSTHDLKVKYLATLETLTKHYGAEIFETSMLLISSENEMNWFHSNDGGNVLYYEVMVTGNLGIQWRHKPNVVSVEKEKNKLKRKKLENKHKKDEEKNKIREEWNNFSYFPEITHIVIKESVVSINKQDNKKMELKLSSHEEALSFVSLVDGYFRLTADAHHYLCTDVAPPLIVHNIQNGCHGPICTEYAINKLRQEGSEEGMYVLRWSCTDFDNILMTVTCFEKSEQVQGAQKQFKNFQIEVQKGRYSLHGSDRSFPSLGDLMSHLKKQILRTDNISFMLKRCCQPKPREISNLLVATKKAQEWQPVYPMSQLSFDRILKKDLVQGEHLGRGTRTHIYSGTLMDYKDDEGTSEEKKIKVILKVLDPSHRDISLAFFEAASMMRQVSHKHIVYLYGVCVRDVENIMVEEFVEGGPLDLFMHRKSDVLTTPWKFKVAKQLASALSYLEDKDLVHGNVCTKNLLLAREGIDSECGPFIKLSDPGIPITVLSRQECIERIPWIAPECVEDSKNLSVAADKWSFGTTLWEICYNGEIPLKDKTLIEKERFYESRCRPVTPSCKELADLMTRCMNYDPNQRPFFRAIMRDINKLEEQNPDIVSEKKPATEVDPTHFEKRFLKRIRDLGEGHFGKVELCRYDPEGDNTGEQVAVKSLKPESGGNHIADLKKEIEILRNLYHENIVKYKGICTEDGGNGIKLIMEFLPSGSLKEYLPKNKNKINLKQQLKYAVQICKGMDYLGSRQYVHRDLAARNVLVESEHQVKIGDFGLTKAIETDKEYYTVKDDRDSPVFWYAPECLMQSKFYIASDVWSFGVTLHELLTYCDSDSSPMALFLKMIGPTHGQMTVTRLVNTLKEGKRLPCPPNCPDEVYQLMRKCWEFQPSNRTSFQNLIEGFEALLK
T1 sequence (P29597 whole entry): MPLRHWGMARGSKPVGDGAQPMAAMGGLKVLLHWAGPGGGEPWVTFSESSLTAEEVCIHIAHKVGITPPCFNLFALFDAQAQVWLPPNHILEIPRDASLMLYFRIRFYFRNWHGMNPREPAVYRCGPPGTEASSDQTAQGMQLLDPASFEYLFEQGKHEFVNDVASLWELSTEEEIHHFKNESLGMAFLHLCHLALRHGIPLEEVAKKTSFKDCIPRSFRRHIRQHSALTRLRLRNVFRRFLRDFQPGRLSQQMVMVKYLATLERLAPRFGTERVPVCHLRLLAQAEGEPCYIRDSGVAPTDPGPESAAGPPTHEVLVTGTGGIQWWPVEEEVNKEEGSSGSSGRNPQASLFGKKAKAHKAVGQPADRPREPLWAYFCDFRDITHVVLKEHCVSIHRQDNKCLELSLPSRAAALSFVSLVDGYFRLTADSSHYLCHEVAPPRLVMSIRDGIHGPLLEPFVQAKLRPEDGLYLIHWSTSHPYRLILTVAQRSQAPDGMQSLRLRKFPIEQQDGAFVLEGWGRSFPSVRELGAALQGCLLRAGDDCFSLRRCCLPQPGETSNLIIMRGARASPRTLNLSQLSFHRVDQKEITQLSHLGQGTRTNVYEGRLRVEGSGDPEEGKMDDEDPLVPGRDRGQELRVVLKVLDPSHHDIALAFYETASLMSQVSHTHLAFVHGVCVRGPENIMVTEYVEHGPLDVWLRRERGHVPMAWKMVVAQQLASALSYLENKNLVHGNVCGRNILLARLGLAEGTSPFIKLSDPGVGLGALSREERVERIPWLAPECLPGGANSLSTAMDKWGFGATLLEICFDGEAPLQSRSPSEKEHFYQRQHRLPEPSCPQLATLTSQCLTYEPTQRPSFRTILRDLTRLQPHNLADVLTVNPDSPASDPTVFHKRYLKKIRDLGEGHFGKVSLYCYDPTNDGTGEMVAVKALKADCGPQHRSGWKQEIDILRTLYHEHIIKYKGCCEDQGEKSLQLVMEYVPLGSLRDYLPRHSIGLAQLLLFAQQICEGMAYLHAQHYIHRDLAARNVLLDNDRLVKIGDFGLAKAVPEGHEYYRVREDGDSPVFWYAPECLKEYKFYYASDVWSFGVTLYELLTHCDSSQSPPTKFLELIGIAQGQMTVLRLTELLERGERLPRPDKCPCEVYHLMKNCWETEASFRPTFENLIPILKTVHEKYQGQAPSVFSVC
T3 sequence (P23458 whole entry): as the sequence (P23458 whole entry, one chain of several) above

`Nc1ncc(C(=O)NCc2ccccc2)c2sc(-c3ccc(N4CCOCC4)cc3)cc12`: the IC50 in series [1] is 2.6 µM; in [2], above 125 µM; in series [3] it was 0.307 µM.

For the molecule `CC(C)(C)NC(=O)c1cnc(N)c2cc(-c3ccc(N4CCOCC4)cc3)sc12`, the results for the IC50 in [1], in series [2] and in [3] were 6.98 µM, 10.3 µM and 8.82 µM, respectively.

Turning to `CC(C)(C)NS(=O)(=O)c1ccc(-c2cc3c(N)ncc(C(=O)NCCN4CCOCC4)c3s2)cc1`, the IC50 in series [4] was above 25 µM; in series [5], above 25 µM; in [6] it was 7.3 µM; in series [1], 0.757 µM; in series [7], above 25 µM; in [2] it was 0.963 µM. In series [3], the midpoint of inhibition, the IC50, lay at 0.177 µM. The fraction unbound in series [8] was 0.101.

In the case of `CNC(=O)c1cnc(N)c2cc(-c3ccc(C(C)(C)C#N)cc3)sc12`, the IC50 is above 25 µM in [4]; 1.16 µM in series [9]; above 25 µM in series [5]; 0.146 µM in series [1]; 0.118 µM in series [2]; 0.036 µM in series [3].

`CNC(=O)c1cnc(N)c2cc(-c3ccc(C(C)(C)C)cc3)sc12`: the half-maximal inhibitory concentration (IC50) is above 25 µM in series [4]; above 25 µM in series [5]; 0.202 µM in [1]; 0.188 µM in series [2]; 0.039 µM in [3].

As for `CN(C)CCNC(=O)c1cnc(N)c2cc(-c3ccc(S(=O)(=O)NC(C)(C)C)cc3)sc12`, the IC50 was above 25 µM in series [4]; above 25 µM in series [9]; above 25 µM in [5]; above 25 µM in series [6]; 4.1 µM in [1]; above 25 µM in [7]. Moreover, the IC50 amounted to 3.33 µM in series [2] and 0.708 µM in [3]. This molecule gave a fraction unbound in series [8] of 0.064.

Turning to `CNC(=O)c1cnc(N)c2cc(-c3ccccc3)sc12`, the IC50 in [4] was above 25 µM; in series [5], above 25 µM; in series [1], 0.937 µM; in series [2] it was 0.767 µM; in series [3], 0.29 µM.

`CNC(=O)c1cnc(N)c2cc(-c3ccc(S(=O)(=O)NC(C)(C)C)cc3)sc12`: the IC50 in series [4] is above 25 µM; in [9], 1.09 µM; in [5] it was above 25 µM; in series [6], 0.625 µM; in series [1] it was 0.266 µM; in series [7], above 25 µM. For the same molecule, the concentration for half-maximal inhibition (IC50) in series [2] was 0.307 µM; in series [3], 0.03 µM. Further, the fraction unbound in [8] was 0.012.

As to `CC(C)(C)NS(=O)(=O)c1ccc(-c2cc3c(N)ncc(C(=O)NCCCN4CCOCC4)c3s2)cc1`, the IC50 in series [4] is above 25 µM; in series [9], 12.6 µM; in series [5], above 25 µM; in [1], 1.55 µM; in [2], 0.645 µM; in series [3], 0.206 µM.

For the molecule `CC(C)(C)NS(=O)(=O)c1ccc(-c2cc3c(N)ncc(C(=O)NCCN4CCCCC4)c3s2)cc1`, the IC50 in series [4] was above 25 µM; in series [9], above 25 µM; in series [5], above 25 µM; in series [1], 2.67 µM; in series [2], 2.38 µM; in series [3], 0.654 µM.

Consider `CCNC(=O)c1cnc(N)c2cc(-c3ccc(N4CCOCC4)cc3)sc12`, for which the IC50 in series [1] was 1.07 µM; in [2], 0.967 µM; in series [3], 0.133 µM.

With `CNC(=O)c1cnc(N)c2cc(-c3ccc(N4CCOCC4)cc3)sc12`, the IC50 in series [4] is above 25 µM; in [9], 1.81 µM; in series [5] it was above 25 µM; in [1], 1.33 µM; in series [2] it was 1.34 µM; in series [3], 0.211 µM.

Take `CN(C)C(=O)c1cnc(N)c2cc(-c3ccc(N4CCOCC4)cc3)sc12`: the IC50 in [1] stood at 5.15 µM; in series [2], 1.66 µM; in series [3], 3.1 µM.

`COCCNC(=O)c1cnc(N)c2cc(-c3ccc(S(=O)(=O)NC(C)(C)C)cc3)sc12`: the IC50 in series [4] is above 25 µM; in [9] it was 6.61 µM; in series [5], above 25 µM; in [6], 4.45 µM; in [1], 1.48 µM; in series [7], above 25 µM. For the same molecule, the IC50 in series [2] was 1.28 µM; in series [3], 0.129 µM. In [8], this molecule registered an unbound share (fraction unbound) of 0.023.

With `CNC(=O)c1cnc(N)c2cc(-c3ccc(C)cc3)sc12`, the 50% inhibitory concentration (IC50) in series [4] is above 25 µM; in series [9], above 25 µM; in [5], above 25 µM; in [1], 0.888 µM; in [2] it was 0.545 µM; in series [3], 0.377 µM.

In the case of `NC(=O)c1cnc(N)c2cc(-c3ccc(N4CCOCC4)cc3)sc12`, the IC50 in series [4] is above 25 µM; in series [9], 0.748 µM; in [5], above 25 µM; in series [6], 0.548 µM; in series [1], 0.066 µM; in series [7], above 25 µM. The IC50 in series [2] is 0.018 µM; in [3], 0.039 µM.

As for `CNC(=O)c1cnc(N)c2cc(-c3ccc(OC(F)(F)F)cc3)sc12`, the IC50 is above 25 µM in series [4]; 6.85 µM in series [9]; above 25 µM in [5]; 0.208 µM in [1]; 0.365 µM in series [2]; 0.07 µM in [3].

As for `Nc1ncc(C(=O)Nc2ccccc2)c2sc(-c3ccc(N4CCOCC4)cc3)cc12`, the values for the half-inhibitory concentration (IC50) in [1], in series [2] and in [3] were 1.99 µM, 2.87 µM and 0.406 µM, respectively.

With `CC(C)(C)NS(=O)(=O)c1ccc(-c2cc3c(N)ncc(C(=O)NCCO)c3s2)cc1`, the half-maximal inhibitory concentration (IC50) in series [4] was above 25 µM; in series [5], above 25 µM; in series [1] it was 0.932 µM; in series [2] it was 0.434 µM; in series [3], 0.078 µM.

As usually defined, the IC50 is the point on the concentration scale where inhibition reaches its midpoint. A high value points to lower potency. As usually defined, the fraction unbound is the share of the substance not bound to proteins or other matrix. Higher therefore signals weak binding.

The values above are taken from ChEMBL document CHEMBL1938231 (J Med Chem, 2011).
